Measurements from EPA's CvTdb concentration-time database.

Key:
Assay in all cases: concentration in plasma after dosing
Rat [1] = conditions: dosed: 1-Chloro-2-propanol, 7.5 mg/kg, oral, Male, F344
Rat [2] = conditions: 10 min; dosed: 1-Chloro-2-propanol; 7.5 mg/kg; oral; Female; F344
Rat [3] = conditions: dosed: 1-Chloro-2-propanol, 15 mg/kg, oral, Female, Harlan Sprague-Dawley
Rat [4] = conditions: dosed: 1-Chloro-2-propanol, 7.5 mg/kg, oral, Male, F344; remark: listed apart in the source
Rat [5] = conditions: dosed: 1-Chloro-2-propanol, 15 mg/kg, oral, Female, Harlan Sprague-Dawley; remark: listed apart in the source
Rat [6] = conditions: dosed: 1-Chloro-2-propanol, 7.5 mg/kg, oral, Male, F344; remark: listed apart in the source
Rat [7] = conditions: 40 min; dosed: 1-Chloro-2-propanol; 7.5 mg/kg; oral; Male; F344
Rat [8] = conditions: dosed: 1-Chloro-2-propanol, oral
Rat [9] = conditions: dosed: 1-Chloro-2-propanol, 15 mg/kg, oral, Female, F344
Rat [10] = conditions: dosed: 1-Chloro-2-propanol, 15 mg/kg, oral, Male, F344
Rat [11] = conditions: 0.5 h; dosed: 1-Chloro-2-propanol; 7.5 mg/kg; oral; Female; F344
Rat [12] = conditions: dosed: 1-Chloro-2-propanol, 7.5 mg/kg, oral, Female, F344
Rat [13] = conditions: dosed: 1-Chloro-2-propanol, 7.5 mg/kg, oral, Male, F344; remark: listed apart in the source
Rat [14] = conditions: dosed: 1-Chloro-2-propanol, 7.5 mg/kg, oral, Male, F344; remark: listed apart in the source
Rat [15] = conditions: dosed: 1-Chloro-2-propanol, 7.5 mg/kg, oral, Male, F344; remark: listed apart in the source
Rat [16] = conditions: dosed: 1-Chloro-2-propanol, 15 mg/kg, oral, Male, F344; remark: listed apart in the source
Rat [17] = conditions: 40 min; dosed: 1-Chloro-2-propanol; 15 mg/kg; oral; Male; F344
Rat [18] = conditions: dosed: 1-Chloro-2-propanol, 7.5 mg/kg, oral, Female, F344; remark: listed apart in the source
Rat [19] = conditions: 0.5 h; dosed: 1-Chloro-2-propanol; 7.5 mg/kg; oral; Female; F344; remark: listed apart in the source
Rat [20] = conditions: dosed: 1-Chloro-2-propanol, 15 mg/kg, oral, Female, Harlan Sprague-Dawley; remark: listed apart in the source
Rat [21] = conditions: dosed: 1-Chloro-2-propanol, 15 mg/kg, oral, Female, Harlan Sprague-Dawley; remark: listed apart in the source
Rat [22] = conditions: dosed: 1-Chloro-2-propanol, 15 mg/kg, oral, Female, F344; remark: listed apart in the source
Rat [23] = conditions: dosed: 1-Chloro-2-propanol, 7.5 mg/kg, oral, Female, F344; remark: listed apart in the source
Rat [24] = conditions: 20 min; dosed: 1-Chloro-2-propanol; 7.5 mg/kg; oral; Female; F344
Rat [25] = conditions: dosed: 1-Chloro-2-propanol, 7.5 mg/kg, oral, Male, F344; remark: listed apart in the source
Rat [26] = conditions: dosed: 1-Chloro-2-propanol, 15 mg/kg, oral, Male, F344; remark: listed apart in the source
Rat [27] = conditions: dosed: 1-Chloro-2-propanol, 7.5 mg/kg, oral, Female, F344; remark: listed apart in the source
Rat [28] = conditions: dosed: 1-Chloro-2-propanol, 15 mg/kg, oral, Female, F344; remark: listed apart in the source
Rat [29] = conditions: dosed: 1-Chloro-2-propanol, 15 mg/kg, oral, Female, F344; remark: listed apart in the source
Rat [30] = conditions: dosed: 1-Chloro-2-propanol, 15 mg/kg, oral, Male, F344; remark: listed apart in the source

CC(O)CCl (stereo not drawn) [1-Chloro-2-propanol]
Conditions	concentration in plasma [ng/mL]
Rat [1], 5 min	1600
Rat [1], 40 min	750
Rat [3], 0.5 h	3970
Rat [3], 2.5 h	79
Rat [4], 1.5 h	144
Rat [4], 20 min	960
Rat [5], 1.5 h	354
Rat [5], 20 min	6300
Rat [6], 1 h	195
Rat [6], 10 min	1400
Rat [9], 1 h	630
Rat [9], 5 min	6880
Rat [10], 1 h	940
Rat [10], 5 min	6120
Rat [12], 1 h	133
Rat [12], 10 min	1260
Rat [13], 1.5 h	108
Rat [13], 20 min	1270
Rat [14], 0.5 h	1040
Rat [14], 2 h	75
Rat [15], 1 h	393
Rat [15], 10 min	900
Rat [16], 1 h	1020
Rat [16], 5 min	3020
Rat [18], 5 min	2360
Rat [18], 40 min	720
Rat [20], 0.5 h	4680
Rat [20], 2.5 h	71
Rat [21], 1.5 h	780
Rat [21], 20 min	4590
Rat [22], 1 h	897
Rat [22], 5 min	4660
Rat [23], 1.5 h	81
Rat [23], 20 min	740
Rat [25], 0.5 h	1360
Rat [25], 2 h	56
Rat [26], 2 h	203
Rat [26], 10 min	6460
Rat [27], 5 min	1170
Rat [27], 40 min	213
Rat [28], 2 h	72
Rat [28], 10 min	6200
Rat [29], 2 h	112
Rat [29], 10 min	4730
Rat [30], 2 h	131
Rat [30], 10 min	6070

Conditions	concentration in plasma [ng/mL]
Rat [2]	1450
Rat [7]	810
Rat [11]	730
Rat [17]	2740
Rat [19]	740
Rat [24]	830

concentration in plasma [ng/mL], Rat [8]
Conditions	0.5 h	1 h	1.5 h	2 h	2.5 h	3 h	5 min	10 min	20 min	40 min
7.5 mg/kg, Female, F344	479	138	–	–	–	–	1920	1890	1660	534
7.5 mg/kg, Male, F344	740	334	117	70	–	–	1660	1830	1030	638
15 mg/kg, Female, F344	–	677	–	127	–	–	3360	3860	3180	–
15 mg/kg, Female, Harlan Sprague-Dawley	3270	–	768	–	69	59	–	–	3020	4110
15 mg/kg, Male, F344	–	920	–	159	–	107	1700	5370	–	3300
